Drawing on patent US8546395B2, “6-cycloamino-3-(1H-pyrrolo[2,3-b]pyridin-4-yl)imidazo[1,2-b]pyridazine derivatives, preparation thereof and therapeutic use thereof” (Sanofi, priority 2008, dated 2013), this text covers melting point for 20 molecules.

The structures appear in SMILES notation. Structures can show the parent of a compound that is named as a salt.

For the molecule `Fc1ccc(-c2nc3ccc(N4CCN[C@H](c5ccccc5)C4)nn3c2-c2ccnc3[nH]ccc23)cc1` (as salt: HCl) [Compound 24, (R)-2-(4-Fluorophenyl)-6-[3-phenylpiperazin-1-yl]-3-(1H-pyrrolo[2,3-b]pyridin-4-yl)imidazo[1,2-b]pyridazine], the melting point is 215 °C (dec.).
The figure for `Fc1ccc(-c2nc3ccc(N4CCN[C@@H](c5ccccc5)C4)nn3c2-c2ccnc3[nH]ccc23)cc1` (as salt: HCl) [Compound 25, (S)-2-(4-Fluorophenyl)-6-[3-phenylpiperazin-1-yl]-3-(1H-pyrrolo[2,3-b]pyridin-4-yl)imidazo[1,2-b]pyridazine] is 215 °C (dec.).
Molecule `Cc1cc(N2CCNC(C)(C)C2)nn2c(-c3ccnc4[nH]ccc34)c(-c3cccc(F)c3)nc12` [Compound 9, 6-(3,3-Dimethylpiperazin-1-yl)-2-(3-fluorophenyl)-8-methyl-3-(1H-pyrrolo[2,3-b]pyridin-4-yl)imidazo[1,2-b]pyridazine] gave a melting point of 270 to 273 °C.
The figure for `Cc1cc(N2CCNC(C)(C)C2)nn2c(-c3ccnc4[nH]ccc34)c(-c3ccc(F)cc3)nc12` [Compound 10, 6-(3,3-Dimethylpiperazin-1-yl)-2-(4-fluorophenyl)-8-methyl-3-(1H-pyrrolo[2,3-b]pyridin-4-yl)imidazo[1,2-b]pyridazine] is above 300 °C; for `C[C@@H]1CN(c2ccc3nc(-c4ccc(F)cc4)c(-c4ccnc5[nH]ccc45)n3n2)C[C@H](C)N1` [Compound 11, 6-[(cis)-3,5-Dimethylpiperazin-1-yl]-2-(4-fluorophenyl)-3-(1H-pyrrolo[2,3-b]pyridin-4-yl)imidazo[1,2-b]pyridazine] it is 288 to 290 °C; for `Cc1cc(N2CCN(CCO)CC2)nn2c(-c3ccnc4[nH]ccc34)c(-c3cccc(F)c3)nc12` [Compound 12, 2-{4-[2-(3-Fluorophenyl)-8-methyl-3-(1H-pyrrolo[2,3-b]pyridin-4-yl)imidazo[1,2-b]pyridazin-6-yl]piperazin-1-yl}ethanol] it is 201 to 203 °C.
The figure for `Cc1cc(N2CCN(CCO)CC2)nn2c(-c3ccnc4[nH]ccc34)c(-c3ccc(F)cc3)nc12` [Compound 13, 2-{4-[2-(4-Fluorophenyl)-8-methyl-3-(1H-pyrrolo[2,3-b]pyridin-4-yl)imidazo[1,2-b]pyridazin-6-yl]piperazin-1-yl}ethanol] is 239 to 242 °C.
The figure for `CC(C)N1CCN(c2ccc3nc(-c4ccc(F)cc4)c(-c4ccnc5[nH]ccc45)n3n2)CC1` [Compound 14, 2-(4-Fluorophenyl)-6-(4-isopropylpiperazin-1-yl)-3-(1H-pyrrolo[2,3-b]pyridin-4-yl)imidazo[1,2-b]pyridazine] is 271 to 273 °C.
The molecule `Cc1cc(N2CCN(C(C)C)CC2)nn2c(-c3ccnc4[nH]ccc34)c(-c3ccc(F)cc3)nc12` [Compound 15, 2-(4-Fluorophenyl)-6-(4-isopropylpiperazin-1-yl)-8-methyl-3-(1H-pyrrolo[2,3-b]pyridin-4-yl)imidazo[1,2-b]pyridazine] had a melting point of 285 to 291 °C.
The figure for `Cc1cc(N2CCNC3(CCCC3)C2)nn2c(-c3ccnc4[nH]ccc34)c(-c3ccc(F)cc3)nc12` [Compound 18, 6-(6,9-Diazaspiro[4.5]dec-9-yl)-2-(4-fluorophenyl)-8-methyl-3-(1H-pyrrolo[2,3-b]pyridin-4-yl)imidazo[1,2-b]pyridazine] is 293 to 299 °C; for `CC(C)(CO)N1CCN(c2ccc3nc(-c4ccc(F)cc4)c(-c4ccnc5[nH]ccc45)n3n2)CC1` [Compound 19, 2-{4-[2-(4-Fluorophenyl)-3-(1H-pyrrolo[2,3-b]pyridin-4-yl)imidazo[1,2-b]pyridazin-6-yl]piperazin-1-yl}-2-methylpropan-1-ol] it is above 250 °C.
Consider `Cc1cc(N2CCN(CC(C)(C)O)CC2)nn2c(-c3ccnc4[nH]ccc34)c(-c3cccc(F)c3)nc12` [Compound 21, 1-{4-[2-(3-Fluorophenyl)-8-methyl-3-(1H-pyrrolo[2,3-b]pyridin-4-yl)imidazo[1,2-b]pyridazin-6-yl]piperazin-1-yl}-2-methylpropan-2-ol], for which the melting point is above 270 °C.
The figure for `Cc1cc(N2CCN(CC(C)(C)O)CC2)nn2c(-c3ccnc4[nH]ccc34)c(-c3ccc(F)cc3)nc12` [Compound 22, 1-{4-[2-(4-Fluorophenyl)-8-methyl-3-(1H-pyrrolo[2,3-b]pyridin-4-yl)imidazo[1,2-b]pyridazin-6-yl]piperazin-1-yl}-2-methylpropan-2-ol] is 265 to 268 °C.
The figure for `CC(C)(O)CCN1CCN(c2ccc3nc(-c4ccc(F)cc4)c(-c4ccnc5[nH]ccc45)n3n2)CC1` [Compound 23, 4-{4-[2-(4-Fluorophenyl)-3-(1H-pyrrolo[2,3-b]pyridin-4-yl)imidazo[1,2-b]pyridazin-6-yl]piperazin-1-yl}-2-methylbutan-2-ol] is 73 to 75 °C; for `Cc1cc(N2CCNC(c3ccccc3)C2)nn2c(-c3ccnc4[nH]ccc34)c(-c3ccc(F)cc3)nc12` (centres unmarked) [Compound 26, 2-(4-Fluorophenyl)-8-methyl-6-[3-phenylpiperazin-1-yl]-3-(1H-pyrrolo[2,3-b]pyridin-4-yl)imidazo[1,2-b]pyridazine] it is 253 to 257 °C.
In turn, `Fc1ccc(-c2nc3ccc(N4CCN(Cc5ccccc5)CC4)nn3c2-c2ccnc3[nH]ccc23)cc1` [Compound 27, 6-(4-Benzylpiperazin-1-yl)-2-(4-fluorophenyl)-3-(1H-pyrrolo[2,3-b]pyridin-4-yl)imidazo[1,2-b]pyridazine] displayed a melting point of 274 to 278 °C.
Consider `CN1C[C@@H]2CN(c3ccc4nc(-c5ccc(F)cc5)c(-c5ccnc6[nH]ccc56)n4n3)C[C@@H]2C1` [Compound 28, (cis)-2-(4-Fluorophenyl)-6-(5-methylhexahydropyrrolo[3,4-c]pyrrol-2(1H)-yl)-3-(1H-pyrrolo[2,3-b]pyridin-4-yl)imidazo[1,2-b]pyridazine], for which the melting point was in the range of 238 to 239 °C.
The figure for `OCCN1C[C@@H]2CN(c3ccc4nc(-c5ccc(F)cc5)c(-c5ccnc6[nH]ccc56)n4n3)C[C@@H]2C1` [Compound 30, (cis)-2-{5-[2-(4-Fluorophenyl)-3-(1H-pyrrolo[2,3-b]pyridin-4-yl)imidazo[1,2-b]pyridazin-6-yl]hexahydropyrrolo[3,4-c]pyrrol-2(1H)-yl}ethanol] is 175 to 180 °C; for `Cc1cc(N2C[C@H]3CN(CCO)C[C@H]3C2)nn2c(-c3ccnc4[nH]ccc34)c(-c3ccc(F)cc3)nc12` [Compound 31, (cis)-2-{5-[2-(4-Fluorophenyl)-8-methyl-3-(1H-pyrrolo[2,3-b]pyridin-4-yl)imidazo[1,2-b]pyridazin-6-yl]hexahydropyrrolo[3,4-c]pyrrol-2(1H)-yl}ethanol] it is 271 to 275 °C; for `Cc1cc(N2C[C@H]3CCCN(C)[C@H]3C2)nn2c(-c3ccnc4[nH]ccc34)c(-c3ccc(F)cc3)nc12` [Compound 32, 2-(4-Fluorophenyl)-8-methyl-6-((4aR,7aR)-1-methyloctahydro-6H-pyrrolo[3,4-b]pyridin-6-yl)-3-(1H-pyrrolo[2,3-b]pyridin-4-yl)imidazo[1,2-b]pyridazine] it is above 260 °C.

What is called melting point is the temperature, or range, at which the solid turns liquid.
